We go through nine compounds from PubChem BioAssay (NCI).

Some test systems named below: K-562 leukemia; HS 578T breast; SN12C renal; NCI/ADR-RES ovarian; NCI-H460 lung; SF-268 CNS; OVCAR-3 ovarian; U251 CNS; HCT-116 colon; ACHN renal.
What all share (test): NCI anticancer screen, dose series, 48 h

SMILES strings stand for the structures.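 Growth conditions: 96-well plates. Treatment: test compound, 48 hours, 5 concentrations. Analysis: linear interpolation between bracketing concentrations; unreached endpoints set to highest concentration. GI50 = concentration required for 50% inhibition of growth. TGI is the concentration that stops growth completely.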

For `COc1ccc(C(=O)c2cc(OC)c(OC)c(OC)c2)cc1/C=C/C(=O)c1ccc2c(c1)OCO2`, the GI50 in the assay on K-562 leukemia is 0.377 µM; in the assay with HS 578T breast, 4.56 µM; in the assay with SN12C renal, 3.07 µM; in the assay on NCI/ADR-RES ovarian, 1.46 µM; in the assay with NCI-H460 lung, 3.09 µM; in the assay on SF-268 CNS it was 2.95 µM. For the same compound, in the assay on OVCAR-3 ovarian, the GI50 was 1.96 µM. Further, the TGI in the assay on K-562 leukemia is above 100 µM; with HS 578T breast, above 100 µM; in the assay with SN12C renal, above 100 µM; in the assay on NCI/ADR-RES ovarian, 15.2 µM; in the assay on NCI-H460 lung it was above 100 µM; with SF-268 CNS it was above 100 µM. This compound yielded a TGI in the assay on OVCAR-3 ovarian of 7.24 µM.
Consider `CN1CCN(CCCOc2ccc3nc(Nc4ccc(C(F)(F)F)c(Cl)c4)ccc3c2)CC1`, for which the GI50 was 0.595 µM in the assay on K-562 leukemia; 1.82 µM with HS 578T breast; 1.88 µM in the assay with NCI/ADR-RES ovarian; 1.46 µM with U251 CNS; 1.88 µM with NCI-H460 lung; 1.46 µM in the assay on HCT-116 colon. Also, the GI50 in the assay with SF-268 CNS is 1.66 µM; in the assay on ACHN renal, 1.74 µM; with OVCAR-3 ovarian it was 1.64 µM. The TGI stood at 2.07 µM with K-562 leukemia; 6.1 µM with HS 578T breast; 5.22 µM in the assay with NCI/ADR-RES ovarian; 2.98 µM with U251 CNS; 4.14 µM in the assay on NCI-H460 lung; 2.94 µM in the assay with HCT-116 colon. Also, the TGI came out at 3.43 µM in the assay on SF-268 CNS, 3.31 µM in the assay on ACHN renal and 3.46 µM in the assay with OVCAR-3 ovarian.
Take `CNc1ccc(C(=O)CC(O)CCC(C)C2OC(=O)CC(O)CC(=O)CC(O)CC(O)CC(O)CC(O)CC3(O)CC(O)C(C(=O)NCCc4ccccn4)C(CC(OC4OC(C)C(O)C(N)C4O)/C=C/C=C/C=C/C=C\C=C/C=C/C=C/C2C)O3)cc1` (stereo unspecified): the GI50 with K-562 leukemia is 2.43 µM; in the assay with HS 578T breast, 0.489 µM; in the assay with SN12C renal, 0.961 µM; in the assay on U251 CNS, 2.11 µM; with NCI-H460 lung, 0.238 µM; with HCT-116 colon it was 0.741 µM. The GI50 in the assay with SF-268 CNS was 0.141 µM; in the assay with ACHN renal, 0.841 µM; in the assay on OVCAR-3 ovarian, 0.643 µM. Also, the TGI is above 20.5 µM in the assay with K-562 leukemia; 2.61 µM in the assay on HS 578T breast; 2.09 µM in the assay on SN12C renal; above 40.3 µM in the assay with U251 CNS; above 17.8 µM with NCI-H460 lung; above 50 µM in the assay on HCT-116 colon. The TGI in the assay on SF-268 CNS was 0.439 µM; in the assay on ACHN renal, 1.53 µM; with OVCAR-3 ovarian, 2.16 µM.
In the case of `Cc1cc2c(=O)c3ccccc3oc2c(C#N)c1C`, the TGI with K-562 leukemia, in the assay with HS 578T breast, with NCI/ADR-RES ovarian, in the assay on U251 CNS, in the assay with NCI-H460 lung and in the assay with HCT-116 colon was above 100 µM each time. Besides, the TGI in the assay with SF-268 CNS and with ACHN renal was above 100 µM each time.
With `Cc1[nH]c2ccccc2c1C1=CC(=O)C=CC1=O`, the GI50 is 8.86 µM in the assay with HS 578T breast; 14.4 µM with SN12C renal; 10.9 µM in the assay with NCI/ADR-RES ovarian; 14.8 µM with U251 CNS; 15.5 µM in the assay on NCI-H460 lung; 10.5 µM in the assay with HCT-116 colon. The GI50 in the assay with SF-268 CNS is 13.1 µM; in the assay on ACHN renal, 3.63 µM; with OVCAR-3 ovarian it was 2.16 µM. Besides, the TGI is 53.3 µM in the assay with HS 578T breast; 32 µM with SN12C renal; 28.4 µM in the assay with NCI/ADR-RES ovarian; 31.4 µM in the assay with U251 CNS; 42.2 µM with NCI-H460 lung; 24.8 µM in the assay on HCT-116 colon. The TGI amounted to 27.4 µM in the assay with SF-268 CNS, 12.5 µM with ACHN renal and 4.6 µM with OVCAR-3 ovarian.
Turning to `COc1cc(C2C(C(=O)OCc3ccccc3)=C(C)NC(C)=C2C(=O)OCc2ccccc2)cc(OC)c1OC`, the GI50 in the assay on HS 578T breast is 5.61 µM; with NCI/ADR-RES ovarian, 3.06 µM; in the assay on U251 CNS, 4.37 µM; in the assay on NCI-H460 lung, 3.54 µM; in the assay with HCT-116 colon, 2.54 µM; in the assay on SF-268 CNS it was 5.17 µM. In addition, the values for the GI50 in the assay on ACHN renal and with OVCAR-3 ovarian were 2.79 µM and 4.99 µM, respectively. Besides, the TGI in the assay with HS 578T breast, in the assay with NCI/ADR-RES ovarian, in the assay with U251 CNS, with NCI-H460 lung, in the assay with HCT-116 colon and in the assay on SF-268 CNS was above 100 µM each time. Moreover, the TGI in the assay with ACHN renal and in the assay with OVCAR-3 ovarian was above 100 µM each time.
With `O=C(O)C1CCCCC1C(=O)Nc1nc2ccccc2[nH]1` (stereo unspecified), the TGI in the assay on HS 578T breast, in the assay on SN12C renal, in the assay on NCI/ADR-RES ovarian, with U251 CNS, in the assay on NCI-H460 lung and with HCT-116 colon was above 100 µM each time. Moreover, the TGI with SF-268 CNS, in the assay on ACHN renal and in the assay on OVCAR-3 ovarian was above 100 µM in each case.
Consider `O=C(Nc1cccc(-n2cc(-c3ccncc3)c(-c3ccc(O)c(Cl)c3)n2)c1)c1ccc(N2CCOCC2)c(C(F)(F)F)c1`, for which the GI50 with K-562 leukemia was 1.45 µM; with HS 578T breast it was 0.548 µM; with SN12C renal it was above 50 µM; with NCI/ADR-RES ovarian, 4.24 µM; in the assay with U251 CNS, 0.917 µM; with NCI-H460 lung, 1.82 µM. Moreover, the GI50 in the assay on HCT-116 colon was 2.35 µM; in the assay on SF-268 CNS, above 50 µM; with ACHN renal, 2.18 µM. Further, the TGI in the assay with K-562 leukemia, in the assay on HS 578T breast, with SN12C renal, in the assay with NCI/ADR-RES ovarian, in the assay on U251 CNS and in the assay on NCI-H460 lung was above 50 µM in each case. For the same compound, the TGI with HCT-116 colon, with SF-268 CNS and with ACHN renal was above 50 µM throughout.
With `CCCC(=O)Nc1ncnc2c1ncn2C1OC2COP(=O)(O)OC2C1OC(=O)CCC` (stereo unspecified), the GI50 with K-562 leukemia, with SN12C renal, in the assay with NCI/ADR-RES ovarian, with U251 CNS, in the assay with HCT-116 colon and in the assay with SF-268 CNS was above 1000 µM throughout. Further, the GI50 in the assay on ACHN renal and with OVCAR-3 ovarian was above 1000 µM each time. The TGI in the assay with K-562 leukemia, in the assay on HS 578T breast, with SN12C renal, in the assay on NCI/ADR-RES ovarian, in the assay with U251 CNS and in the assay on HCT-116 colon was above 1000 µM each time. Moreover, the TGI in the assay on SF-268 CNS, with ACHN renal and in the assay with OVCAR-3 ovarian was above 1000 µM throughout.
